# Structures can show the parent of a compound that is named as a salt. Where two headings read alike, the source gives them in different places.
# Tests used:
# human CYP2D6 [1] = target: T1, human CYP2D6 (Homo sapiens, UniProt P10635); experiment: biochemical
# human CYP2C9 [2] = target: T2, human CYP2C9 (Homo sapiens, UniProt P11712); experiment: biochemical
# human CYP1A2 = target: T3, human CYP1A2 (Homo sapiens, UniProt P05177); experiment: biochemical
# T3 sequence (P05177 1-516): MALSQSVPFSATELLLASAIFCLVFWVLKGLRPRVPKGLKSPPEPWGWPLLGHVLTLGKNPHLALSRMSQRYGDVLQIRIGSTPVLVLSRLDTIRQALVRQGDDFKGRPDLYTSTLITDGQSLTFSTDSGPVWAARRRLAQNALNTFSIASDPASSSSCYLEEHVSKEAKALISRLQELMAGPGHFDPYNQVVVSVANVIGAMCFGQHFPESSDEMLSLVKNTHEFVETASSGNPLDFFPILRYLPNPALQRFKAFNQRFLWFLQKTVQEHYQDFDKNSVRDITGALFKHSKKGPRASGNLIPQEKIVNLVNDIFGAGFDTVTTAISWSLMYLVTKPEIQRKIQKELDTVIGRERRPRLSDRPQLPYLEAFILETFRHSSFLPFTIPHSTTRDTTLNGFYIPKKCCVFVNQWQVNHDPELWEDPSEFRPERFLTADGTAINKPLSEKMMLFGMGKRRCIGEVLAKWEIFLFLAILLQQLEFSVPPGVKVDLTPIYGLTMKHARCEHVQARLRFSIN
# human CYP2C19 [3] = target: T4, human CYP2C19 (Homo sapiens, UniProt P33261); experiment: biochemical; details: for AC50: CYP2C19 AC50 (half-maximal activity concentration)
# human CYP2C19 [4] = target: T4, human CYP2C19; details: human
# human CYP2C9 [5] = target: T2, human CYP2C9; details: human
# human CYP2D6 [6] = target: T1, human CYP2D6; details: human
# [7] = CYP2D6 AC50 (half-maximal activity concentration)
# [8] = CYP2C9 AC50 (half-maximal activity concentration)
# [9] = CYP1A2 AC50 (half-maximal activity concentration)
# [10] = CYP2D6 IC50 (half-maximal inhibitory concentration)
# [11] = CYP2C19 IC50 (half-maximal inhibitory concentration)
# [12] = CYP2C9 IC50 (half-maximal inhibitory concentration)
# [13] = CYP1A2 IC50 (half-maximal inhibitory concentration)
# T4 sequence (P33261 whole entry): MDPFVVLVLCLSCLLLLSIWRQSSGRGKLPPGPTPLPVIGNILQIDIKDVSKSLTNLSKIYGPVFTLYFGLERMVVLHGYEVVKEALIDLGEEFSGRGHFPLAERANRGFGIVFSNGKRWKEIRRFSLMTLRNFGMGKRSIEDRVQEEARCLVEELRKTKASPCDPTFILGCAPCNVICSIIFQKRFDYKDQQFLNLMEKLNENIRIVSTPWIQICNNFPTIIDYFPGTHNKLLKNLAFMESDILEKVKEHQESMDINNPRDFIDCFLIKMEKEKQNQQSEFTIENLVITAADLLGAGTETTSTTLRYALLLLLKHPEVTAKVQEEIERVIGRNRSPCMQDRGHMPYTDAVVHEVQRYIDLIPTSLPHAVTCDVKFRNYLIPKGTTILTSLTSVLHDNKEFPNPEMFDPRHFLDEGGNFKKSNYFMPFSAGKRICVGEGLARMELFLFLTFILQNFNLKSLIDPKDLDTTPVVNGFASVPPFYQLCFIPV
# T1 sequence (P10635 whole entry): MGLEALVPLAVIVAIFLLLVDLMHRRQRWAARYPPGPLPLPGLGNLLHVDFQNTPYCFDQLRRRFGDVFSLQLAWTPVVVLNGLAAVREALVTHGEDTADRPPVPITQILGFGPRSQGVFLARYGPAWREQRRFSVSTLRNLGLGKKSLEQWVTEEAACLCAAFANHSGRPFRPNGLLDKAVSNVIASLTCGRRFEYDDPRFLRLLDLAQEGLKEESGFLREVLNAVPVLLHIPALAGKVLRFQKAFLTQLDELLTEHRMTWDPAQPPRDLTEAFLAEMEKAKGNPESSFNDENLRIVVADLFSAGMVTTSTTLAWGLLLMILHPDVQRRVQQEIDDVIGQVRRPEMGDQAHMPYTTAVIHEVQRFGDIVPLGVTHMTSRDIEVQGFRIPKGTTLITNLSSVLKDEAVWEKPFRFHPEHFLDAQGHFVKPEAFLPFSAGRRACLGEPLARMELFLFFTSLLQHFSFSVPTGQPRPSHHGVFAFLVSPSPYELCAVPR
# T2 sequence (P11712 whole entry): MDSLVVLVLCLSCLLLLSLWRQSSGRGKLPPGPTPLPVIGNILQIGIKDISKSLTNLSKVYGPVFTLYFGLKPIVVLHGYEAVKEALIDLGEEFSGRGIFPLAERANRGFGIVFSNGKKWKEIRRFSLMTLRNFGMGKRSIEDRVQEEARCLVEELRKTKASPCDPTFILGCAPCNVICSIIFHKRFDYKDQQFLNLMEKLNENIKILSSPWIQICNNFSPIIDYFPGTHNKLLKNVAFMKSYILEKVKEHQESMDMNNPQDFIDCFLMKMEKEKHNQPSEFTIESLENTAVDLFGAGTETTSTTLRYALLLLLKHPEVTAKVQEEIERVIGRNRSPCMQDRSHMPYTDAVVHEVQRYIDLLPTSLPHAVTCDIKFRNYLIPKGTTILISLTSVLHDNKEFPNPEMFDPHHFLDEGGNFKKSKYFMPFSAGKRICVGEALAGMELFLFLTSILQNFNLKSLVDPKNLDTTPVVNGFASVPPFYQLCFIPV
compound,measurement,setting,value
COC(=O)C1=C(C)NC(C)=C(C(=O)OC(C)(C)CN(C)CCC(c2ccccc2)c2ccccc2)C1c1cccc([N+](=O)[O-])c1 (centres unmarked) [Lercanidipine hydrochloride],IC50,human CYP2D6 [1],4.44 ± 1.02 µM
same,IC50,human CYP2C9 [2],2.89 ± 0.52 µM
same,IC50,human CYP1A2,32.8 ± 2.67 µM
CC1CCC(C(C)C)C(OC(=O)c2ccccc2N)C1 (centres unmarked) [Menthyl anthranilate],AC50,human CYP2D6 [1]; [7],57.9 µM
same,AC50,human CYP2C19 [3],4.62 µM
same,AC50,human CYP2C9 [2]; [8],4.33 µM
same,AC50,human CYP1A2; [9],16.6 µM
COc1ccc(C(c2ccc(OC)cc2)C(Cl)(Cl)Cl)cc1 [Methoxychlor],IC50,human CYP2D6 [1]; [10],35.5 µM
same,IC50,human CYP2C19 [3]; [11],0.86 µM
same,IC50,human CYP2C9 [2]; [12],2.45 µM
same,IC50,human CYP1A2; [13],17.8 µM
Clc1ccc(C(c2ccccc2Cl)C(Cl)Cl)cc1 (centres unmarked) [Mitotane],AC50,human CYP2D6 [1]; [7],32.4 µM
same,IC50,human CYP2D6 [1]; [10],32.4 µM
same,CYP2C19 Efficacy (in parenthesis),human CYP2C19 [4],0.82 ± 0.15 (-131 ± 13) %
same,CYP2C9 Efficacy (in parenthesis),human CYP2C9 [5],10.57 ± 0.69 (-106 ± 4) %
same,CYP2D6 Efficacy (in parenthesis),human CYP2D6 [6],32.45 ± 5.84 (-38 ± 9) %
same,AC50,human CYP2C19 [3],0.82 µM
same,IC50,human CYP2C19 [3]; [11],0.82 µM
same,AC50,human CYP2C9 [2]; [8],10.6 µM
same,IC50,human CYP2C9 [2]; [12],10.6 µM
"C[C@@H]1C[C@H]2[C@@H]3CCC4=CC(=O)C=C[C@]4(C)[C@@]3(Cl)[C@@H](O)C[C@]2(C)[C@@]1(OC(=O)c1ccco1)C(=O)CCl [Mometasone furoate, reference compound]",IC50,human CYP2D6 [1]; [10],3.75 µM
same,IC50,human CYP2C19 [3]; [11],7.97 µM
same,IC50,human CYP2C9 [2]; [12],8.08 µM
Cc1c(O)cccc1C(=O)N[C@@H](CSc1ccccc1)[C@H](O)CN1C[C@H]2CCCC[C@H]2C[C@H]1C(=O)NC(C)(C)C [Nelfinavir mesylate],IC50,human CYP2D6 [1]; [10],14.4 µM
same,IC50,human CYP2C19 [3]; [11],42.1 µM
same,IC50,human CYP2C9 [2]; [12],19.1 µM
CCCCCOc1ccccc1/C(=C\SC)n1ccnc1 [Neticonazole],IC50,human CYP2D6 [1],7.69 ± 5.3 µM
same,IC50,human CYP2C19 [3],3.49 ± 2.23 µM
same,IC50,human CYP2C9 [2],7.76 ± 3.93 µM
same,IC50,human CYP1A2,4.51 ± 2.88 µM
O=C(OCC1(COC(=O)c2cccnc2)CCCC(COC(=O)c2cccnc2)(COC(=O)c2cccnc2)C1O)c1cccnc1 [Nicomolol],IC50,human CYP2D6 [1]; [10],22.4 µM
same,IC50,human CYP2C19 [3]; [11],23.3 µM
same,IC50,human CYP2C9 [2]; [12],8.67 µM
CC(C)OC(=O)c1cc(C(=O)OC(C)C)cc([N+](=O)[O-])c1 [Nitrothal-isopropyl],IC50,human CYP2D6 [1],6.51 µM
same,IC50,human CYP2C19 [3],0.52 µM
same,IC50,human CYP2C9 [2],1.06 µM
same,IC50,human CYP1A2,2.34 µM
COc1ccc2c(c1OC)C(=O)O[C@@H]2[C@H]1c2c(cc3c(c2OC)OCO3)CCN1C [Noscapine],IC50,human CYP2D6 [1]; [10],12.9 µM
same,IC50,human CYP2C19 [3]; [11],1.38 µM
same,IC50,human CYP2C9 [2]; [12],0.84 µM
CC(CCc1ccccc1)NC(C)C(O)c1ccc(O)cc1 (centres unmarked) [Nylidrin],AC50,human CYP2D6 [1]; [7],0.49 µM
same,IC50,human CYP2D6 [1]; [10],0.49 µM
same,AC50,human CYP2C19 [3],9.42 µM
same,IC50,human CYP2C19 [3]; [11],9.42 µM
same,AC50,human CYP1A2; [9],13.6 µM
same,IC50,human CYP1A2; [13],13.6 µM
CN1CCCN=C1COC(=O)C(O)(c1ccccc1)C1CCCCC1 (centres unmarked) [Oxyphencyclimine hydrochloride],IC50,human CYP2D6 [1],0.92 µM
same,IC50,human CYP1A2,14.6 µM
CC(N/C(=N\C#N)Nc1ccncc1)C(C)(C)C (centres unmarked) [Pinacidil monohydrate],IC50,human CYP2D6 [1]; [10],25.3 µM
same,CYP2C19 Efficacy (in parenthesis),human CYP2C19 [4],2.06 ± 0.47 (-116 ± 6) %
same,CYP2C9 Efficacy (in parenthesis),human CYP2C9 [5],13.86 ± 1.59 (-102 ± 3) %
same,CYP2D6 Efficacy (in parenthesis),human CYP2D6 [6],25.27 ± 7.04 (-50 ± 9) %
same,IC50,human CYP2C19 [3]; [11],2.06 µM
same,IC50,human CYP2C9 [2]; [12],13.9 µM
Cn1cc(C(=O)[C@@H]2CCc3nc[nH]c3C2)c2ccccc21 [Ramosetron hydrochloride],AC50,human CYP2D6 [1],17.4 µM
same,AC50,human CYP2C9 [2],10.7 ± 4.21 µM
same,AC50,human CYP1A2,17.4 µM
C=C(C)[C@H]1Cc2c(ccc3c2O[C@@H]2COc4cc(OC)c(OC)cc4[C@@H]2C3=O)O1 [Rotenone],IC50,human CYP2D6 [1],37.7 µM
same,IC50,human CYP2C19 [3]; [11],1.04 µM
same,IC50,human CYP2C9 [2],9.2 µM
CCCc1nn(C)c2c(=O)[nH]c(-c3cc(S(=O)(=O)N4CCN(C)CC4)ccc3OCC)nc12 [Sildenafil citrate],IC50,human CYP2D6 [1]; [10],31.7 µM
same,IC50,human CYP2C19 [3]; [11],30.4 µM
same,IC50,human CYP2C9 [2]; [12],20.6 µM
Nc1ccc(S(=O)(=O)Nc2nccs2)cc1 [Sulfathiazole],AC50,human CYP2D6 [1]; [7],56.1 µM
same,AC50,human CYP2C9 [2]; [8],13.3 µM
same,AC50,human CYP1A2; [9],33.2 µM
CN1CCN(CCCN2c3ccccc3Sc3ccc(S(=O)(=O)N(C)C)cc32)CC1 [Thioproperazine dimethanesulfonate],IC50,human CYP2D6 [1],15.5 µM
same,IC50,human CYP2C9 [2],17.4 µM
same,IC50,human CYP1A2,24.1 ± 9.56 µM
OC(CCN1CCCCC1)(c1ccccc1)C1CCCCC1 (centres unmarked) [Trihexyphenidyl hydrochloride],IC50,human CYP2D6 [1]; [10],0.76 µM
same,IC50,human CYP2C19 [3]; [11],17.2 µM
CC1(C)CCC(=Cc2ccc(Cl)cc2)C1(O)Cn1cncn1 (centres unmarked) [Triticonazole],IC50,human CYP2D6 [1]; [10],9.5 µM
same,CYP2C19 Efficacy (in parenthesis),human CYP2C19 [4],0.34 ± 0.15 (-129 ± 16) %
same,CYP2C9 Efficacy (in parenthesis),human CYP2C9 [5],1.47 ± 0.17 (-105 ± 3) %
same,CYP2D6 Efficacy (in parenthesis),human CYP2D6 [6],9.5 ± 2.8 (-97 ± 3) %
same,IC50,human CYP2C19 [3]; [11],0.34 µM
same,IC50,human CYP2C9 [2]; [12],1.47 µM
C=CCOC(Cn1ccnc1)c1ccc(Cl)cc1Cl (centres unmarked) [imazalil],IC50,human CYP2D6 [1]; [10],6.12 µM
same,IC50,human CYP2C19 [3]; [11],0.15 µM
same,IC50,human CYP2C9 [2]; [12],0.77 µM
"Clc1ccc(C(c2ccccc2Cl)C(Cl)Cl)cc1 (centres unmarked) [o,p'-DDD]",AC50,human CYP2D6 [1]; [7],31.2 µM
same,AC50,human CYP2C19 [3],1.05 µM
same,AC50,human CYP2C9 [2]; [8],16.8 µM
